What all share (type): biochemical
Assay [1] has as its target T1, MERTK (Homo sapiens, UniProt Q12866).
T1 sequence (Q12866 21-999): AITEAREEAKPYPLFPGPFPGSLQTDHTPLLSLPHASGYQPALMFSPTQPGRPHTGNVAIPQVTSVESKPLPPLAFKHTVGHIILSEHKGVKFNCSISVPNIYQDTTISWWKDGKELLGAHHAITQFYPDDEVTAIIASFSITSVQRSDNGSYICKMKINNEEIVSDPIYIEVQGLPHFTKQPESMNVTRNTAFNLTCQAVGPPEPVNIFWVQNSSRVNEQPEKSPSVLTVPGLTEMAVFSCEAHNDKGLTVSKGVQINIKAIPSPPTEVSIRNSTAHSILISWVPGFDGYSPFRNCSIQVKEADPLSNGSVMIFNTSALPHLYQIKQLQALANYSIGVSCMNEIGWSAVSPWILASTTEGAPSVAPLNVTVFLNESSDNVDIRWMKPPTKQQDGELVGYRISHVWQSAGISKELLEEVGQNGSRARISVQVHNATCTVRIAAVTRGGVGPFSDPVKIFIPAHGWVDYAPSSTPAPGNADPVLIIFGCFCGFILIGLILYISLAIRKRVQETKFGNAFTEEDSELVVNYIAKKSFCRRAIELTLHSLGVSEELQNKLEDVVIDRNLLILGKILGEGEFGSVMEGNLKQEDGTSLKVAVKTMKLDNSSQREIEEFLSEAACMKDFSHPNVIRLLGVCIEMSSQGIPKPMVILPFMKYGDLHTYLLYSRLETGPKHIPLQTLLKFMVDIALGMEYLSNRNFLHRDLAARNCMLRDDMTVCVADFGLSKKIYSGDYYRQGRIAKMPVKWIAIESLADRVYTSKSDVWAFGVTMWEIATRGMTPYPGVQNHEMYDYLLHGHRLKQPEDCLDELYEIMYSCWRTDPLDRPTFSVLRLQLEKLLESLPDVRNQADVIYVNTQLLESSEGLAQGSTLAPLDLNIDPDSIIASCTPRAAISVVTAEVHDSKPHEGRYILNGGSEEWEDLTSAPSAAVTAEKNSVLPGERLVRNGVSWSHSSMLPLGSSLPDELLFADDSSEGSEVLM
As to the kind of experiment: Kinase assay at Km ATP (Eurofins Discovery), Mer. The following applies: Km ATP. The protocol:
(§1) All kinase assays were carried out at Km ATP by Eurofins Discovery's Kinase Screening and Profiling services (France).

Assay [2] concerns the target T2, AXL (Homo sapiens, UniProt P30530).
T2 sequence (P30530 26-894): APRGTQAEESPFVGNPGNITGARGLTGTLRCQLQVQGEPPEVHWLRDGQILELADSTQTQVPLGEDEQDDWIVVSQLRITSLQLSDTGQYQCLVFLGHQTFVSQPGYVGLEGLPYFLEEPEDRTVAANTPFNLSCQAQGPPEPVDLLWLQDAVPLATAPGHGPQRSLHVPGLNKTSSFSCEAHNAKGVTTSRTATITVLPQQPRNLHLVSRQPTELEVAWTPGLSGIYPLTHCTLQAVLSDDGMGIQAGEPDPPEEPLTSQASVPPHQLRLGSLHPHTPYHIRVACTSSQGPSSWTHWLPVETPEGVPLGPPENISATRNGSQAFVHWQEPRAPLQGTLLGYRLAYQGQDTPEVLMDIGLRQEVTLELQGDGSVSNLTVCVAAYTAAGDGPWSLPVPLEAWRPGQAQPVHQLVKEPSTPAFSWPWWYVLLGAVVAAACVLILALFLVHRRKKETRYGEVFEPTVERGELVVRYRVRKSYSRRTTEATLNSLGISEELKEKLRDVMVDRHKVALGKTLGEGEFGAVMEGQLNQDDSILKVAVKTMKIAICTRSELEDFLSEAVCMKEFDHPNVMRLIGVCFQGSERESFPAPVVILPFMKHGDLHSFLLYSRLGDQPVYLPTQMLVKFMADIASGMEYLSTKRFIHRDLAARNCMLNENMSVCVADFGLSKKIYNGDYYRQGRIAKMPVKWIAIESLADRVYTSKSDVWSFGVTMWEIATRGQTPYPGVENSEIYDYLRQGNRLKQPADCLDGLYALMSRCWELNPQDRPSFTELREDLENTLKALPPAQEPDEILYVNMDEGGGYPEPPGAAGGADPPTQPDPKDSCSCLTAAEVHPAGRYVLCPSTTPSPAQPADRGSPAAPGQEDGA
As to the kind of experiment: Kinase assay at Km ATP (Eurofins Discovery), Axl. The following applies: Km ATP. The protocol:
as §1

For assay [3], the target named is T3, TYRO3 (Homo sapiens, UniProt Q06418).
T3 sequence (Q06418 41-890): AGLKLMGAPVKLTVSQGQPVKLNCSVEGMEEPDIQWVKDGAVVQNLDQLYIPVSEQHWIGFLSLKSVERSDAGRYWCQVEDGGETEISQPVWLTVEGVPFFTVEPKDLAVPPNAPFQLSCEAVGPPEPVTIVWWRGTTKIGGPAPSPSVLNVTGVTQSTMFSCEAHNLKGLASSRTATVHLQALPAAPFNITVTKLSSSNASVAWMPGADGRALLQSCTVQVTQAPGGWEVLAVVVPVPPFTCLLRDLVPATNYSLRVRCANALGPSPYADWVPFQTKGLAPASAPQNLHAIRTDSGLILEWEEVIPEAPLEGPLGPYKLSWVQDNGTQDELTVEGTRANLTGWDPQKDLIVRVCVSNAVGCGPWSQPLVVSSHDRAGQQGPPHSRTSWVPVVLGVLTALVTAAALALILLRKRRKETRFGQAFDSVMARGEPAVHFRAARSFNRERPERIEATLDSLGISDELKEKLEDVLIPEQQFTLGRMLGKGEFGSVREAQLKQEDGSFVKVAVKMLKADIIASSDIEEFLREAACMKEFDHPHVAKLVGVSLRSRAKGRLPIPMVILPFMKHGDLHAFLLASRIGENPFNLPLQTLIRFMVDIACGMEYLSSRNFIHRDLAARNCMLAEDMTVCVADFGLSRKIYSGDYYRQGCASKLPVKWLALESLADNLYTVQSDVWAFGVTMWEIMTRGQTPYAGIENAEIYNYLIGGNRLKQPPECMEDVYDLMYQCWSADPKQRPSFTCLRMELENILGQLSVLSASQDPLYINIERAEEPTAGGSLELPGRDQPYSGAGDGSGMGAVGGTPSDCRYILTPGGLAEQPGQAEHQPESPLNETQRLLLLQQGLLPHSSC
As to the kind of experiment: Kinase assay at Km ATP (Eurofins Discovery), Tyro3. The protocol:
as §1

Where [4] appears, read: Table 2, read-out: IC50 (nM) MER.
The mark [5] stands for this setting: Table 3, read-out: IC50 (nM) MER.
[6] abbreviates: Table 1, mean values, read-out: IC50 (nM) MERTK.

Read-outs that look alike come from different tables or passages of the source.

`COc1ccc(-n2ccc3cnc(Nc4ccc(N5CCC(N(C)C)C5)c(OC)c4)nc32)cc1` (centres unmarked) [Compound 18, N-(4–(3-(Dimethylamino)pyrrolidin-1-yl)-3-methoxyphenyl)-7–(4-methoxyphenyl)-7H-pyrrolo[2,3-d]pyrimidin-2-amine]: the IC50 (as a rule, the concentration at which inhibition is half-maximal) in assay [1] (setting [4]) was 46 nM; in assay [2] (Table 2), 175 nM. In addition, testing at 1 µM in assay [3] gave an inhibition of 30%.
On to `COc1cc(Nc2ncc3ccn(-c4ccccc4)c3n2)cc(N2CCC(N3CCCC3)CC2)c1` [Compound 34, N-(3-Methoxy-5–(4-(pyrrolidin-1-yl)piperidin-1-yl)phenyl)-7-phenyl-7H-pyrrolo[2,3-d]pyrimidin-2-amine], for which the IC50 in assay [1] (setting [5]) was found to be 17 nM; in assay [2] (Table 3), 48 nM. Moreover, testing at 1 µM in assay [3] gave an inhibition of 35%.
Turning to `COc1ccc(-n2ccc3cnc(Nc4ccc(NC5CCN(C)CC5)c(OC)c4)nc32)cc1` [Compound 17, 2-Methoxy-N4-(7–(4-methoxyphenyl)-7H-pyrrolo[2,3-d]pyrimidin-2-yl)-N1-(1-methylpiperidin-4-yl)benzene-1,4-diamine], the IC50 in assay [1] (setting [4]) came to 10 nM; in assay [2] (Table 2), 199 nM. At 1 µM the inhibition in assay [3] was 37%.
Regarding `COc1cc(Nc2ncc3ccn(-c4nccs4)c3n2)cc(N2CCC(N3CCCC3)CC2)c1` [Compound 35, N-(3-Methoxy-5–(4-(pyrrolidin-1-yl)piperidin-1-yl)phenyl)-7-(thiazol-2-yl)-7H-pyrrolo[2,3-d]pyrimidin-2-amine], the figures for the IC50 in assay [1] (setting [5]) and in assay [2] (Table 3) were 64 nM and 247 nM, respectively. Also, the inhibition (in general, the drop in the measured response relative to a control, in per cent) at 1 µM in assay [3] was 16%.
Consider `COc1ccc(-n2ccc3cnc(Nc4cccc(OC)c4)nc32)cc1` [Compound 2, N-(3-Methoxyphenyl)-7–(4-methoxyphenyl)-7H-pyrrolo[2,3-d]pyrimidin-2-amine], for which the IC50 was 39 nM in assay [1] (setting [6]) and 1240 nM in assay [2] (Table 1, mean values). In addition, 1 µM produced 38% inhibition in assay [3].
The matching figures for `COc1ccc(-n2ccc3cnc(N4CCN(C)CC4)nc32)cc1` [Compound 5, 7–(4-Methoxyphenyl)-2–(4-methylpiperazin-1-yl)-7H-pyrrolo[2,3-d]pyrimidine]: above 1000 nM, above 1000 nM and 0%.
For the compound `COc1ccc(-n2ccc3cnc(Nc4ccccc4)nc32)cc1` [Compound 3, 7–(4-Methoxyphenyl)-N-phenyl-7H-pyrrolo[2,3-d]pyrimidin-2-amine], the IC50 in assay [1] (setting [6]) worked out at 95 nM; in assay [2] (Table 1, mean values) it was 751 nM. In assay [3], this compound had an inhibition at 1 µM of 44%.
As for `COc1cc(Nc2ncc3ccn([C@H]4CC[C@H](O)CC4)c3n2)cc(N2CCC(N3CCCC3)CC2)c1` [Compound 36, (1r,4r)-4–(2-((3-Methoxy-5–(4-(pyrrolidin-1-yl)piperidin-1-yl)phenyl)amino)-7H-pyrrolo[2,3-d]pyrimidin-7-yl)cyclohexanol], the IC50 was 484 nM in assay [1] (setting [5]) and 2020 nM in assay [2] (Table 3). In assay [3] (Table 3, 1 µM, Km ATP), the %Inhibition – broadly, the relative decrease from the control value, in per cent – at 1 µM TYRO3 amounted to 55%.
On to `COc1ccc(-n2ccc3cnc(Nc4cc(CN5CCN(C)CC5)cc(OC)c4)nc32)cc1` [Compound 26, N-(3-Methoxy-5-((4-methylpiperazin-1-yl)methyl)phenyl)-7–(4-methoxyphenyl)-7H-pyrrolo[2,3-d]pyrimidin-2-amine], for which the IC50 in assay [1] (setting [4]) was 4 nM; in assay [2] (Table 2), 18 nM. Besides, in assay [3], testing at 1 µM gave an inhibition of 92%.
In the same order, the values of `COc1ccc(-n2ccc3cnc(Nc4cc(OC)cc(N5CCN(C6COC6)CC5)c4)nc32)cc1` [Compound 30, N-(3-Methoxy-5–(4-(oxetan-3-yl)piperazin-1-yl)phenyl)-7–(4-methoxyphenyl)-7H-pyrrolo[2,3-d]pyrimidin-2-amine] are 36 nM, 212 nM and 39%.
In assay [2] (Table 2), `COc1ccc(-n2ccc3cnc(Nc4cc(OC)cc(N5CCC6(CCCO6)CC5)c4)nc32)cc1` [Compound 32, N-(3-Methoxy-5–(1-oxa-8-azaspiro[4.5]decan-8-yl)phenyl)-7–(4-methoxyphenyl)-7H-pyrrolo[2,3-d]pyrimidin-2-amine] showed an IC50 of 288 nM. The inhibition at 1 µM in assay [3] is 0%.

Values taken from paper PMC7534383, “Structure-activity relationship of 7-aryl-2-anilino-pyrrolopyrimidines as Mer and Axl tyrosine kinase inhibitors” (Journal of Enzyme Inhibition and Medicinal Chemistry, 2020).
